# Assay results published in patent publication US20230097866A1, “BACTERIAL TOPOISOMERASE INHIBITORS DERIVED FROM ISOMANNIDE” (Ohio State Innovation Foundation, priority 2020, published 2023).
# pIC50: −log10 of the molar value. Where two headings read alike, the source gives them in different places. Marks after values point to notes of the source that are not given here.
# Experiments:
# [1] = tested on: Escherichia coli ATCC 25922; details: previously published data for 27 and ciprofloxacin; cited from earlier work
# [2] = tested on: Enterococcus faecium DRL-4193; details: vancomycin-susceptible strain; previously published data for 27 and ciprofloxacin; cited from earlier work
# [3] = tested on: Pseudomonas aeruginosa LSI-2946; details: previously published data for 27 and ciprofloxacin; cited from earlier work
# [4] = tested on: Klebsiella pneumoniae LSI-2999; details: previously published data for 27 and ciprofloxacin; cited from earlier work
# [5] = tested on: Streptococcus pyogenes LSI-1235; details: previously published data for 27 and ciprofloxacin; cited from earlier work
# [6] = tested on: Enterococcus faecalis ATCC 29212; details: previously published data for 27 and ciprofloxacin; cited from earlier work
# [7] = tested on: Streptococcus pneumoniae LSI-4246; details: penicillin-resistant strain; previously published data for 27 and ciprofloxacin; cited from earlier work
# [8] = tested on: Acinetobacter baumannii LSI-2957; details: previously published data for 27 and ciprofloxacin; cited from earlier work
# USA300 isolate of MRSA = assay: MIC, CLSI broth microdilution, USA300 MRSA; format: cell-based; details: Staphylococcus aureus, read-out: MIC USA300
# [9] = tested on: S. aureus strain isolated from a cystic fibrosis patient; assay: MIC, CLSI broth microdilution, CF isolate; format: cell-based; details: Staphylococcus aureus, read-out: MIC CF isolate
# TopoIV from S. aureus = TopoIV from S. aureus (Staphylococcus aureus, UniProt P0C1U9); assay: biochemical; format: biochemical
# Chain of TopoIV from S. aureus (P0C1S7 whole entry): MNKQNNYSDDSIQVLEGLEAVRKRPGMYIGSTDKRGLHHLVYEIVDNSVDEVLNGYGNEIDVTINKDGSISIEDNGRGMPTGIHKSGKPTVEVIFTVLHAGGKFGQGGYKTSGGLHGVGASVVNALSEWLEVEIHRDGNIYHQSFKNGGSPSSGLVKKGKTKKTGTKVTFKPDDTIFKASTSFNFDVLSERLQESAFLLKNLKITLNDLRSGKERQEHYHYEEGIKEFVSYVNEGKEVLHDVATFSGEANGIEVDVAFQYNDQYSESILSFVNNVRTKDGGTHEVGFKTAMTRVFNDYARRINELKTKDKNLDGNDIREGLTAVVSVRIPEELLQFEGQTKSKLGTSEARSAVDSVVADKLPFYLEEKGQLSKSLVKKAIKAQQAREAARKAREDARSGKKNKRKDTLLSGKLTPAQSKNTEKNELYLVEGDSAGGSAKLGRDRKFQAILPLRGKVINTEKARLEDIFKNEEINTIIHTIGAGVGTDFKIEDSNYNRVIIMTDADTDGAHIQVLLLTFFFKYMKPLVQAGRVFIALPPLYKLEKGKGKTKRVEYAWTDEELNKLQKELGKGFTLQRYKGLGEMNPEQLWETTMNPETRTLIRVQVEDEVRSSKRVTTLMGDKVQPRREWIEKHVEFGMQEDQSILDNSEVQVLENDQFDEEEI
# Chain of TopoIV from S. aureus (P0C1U9 whole entry): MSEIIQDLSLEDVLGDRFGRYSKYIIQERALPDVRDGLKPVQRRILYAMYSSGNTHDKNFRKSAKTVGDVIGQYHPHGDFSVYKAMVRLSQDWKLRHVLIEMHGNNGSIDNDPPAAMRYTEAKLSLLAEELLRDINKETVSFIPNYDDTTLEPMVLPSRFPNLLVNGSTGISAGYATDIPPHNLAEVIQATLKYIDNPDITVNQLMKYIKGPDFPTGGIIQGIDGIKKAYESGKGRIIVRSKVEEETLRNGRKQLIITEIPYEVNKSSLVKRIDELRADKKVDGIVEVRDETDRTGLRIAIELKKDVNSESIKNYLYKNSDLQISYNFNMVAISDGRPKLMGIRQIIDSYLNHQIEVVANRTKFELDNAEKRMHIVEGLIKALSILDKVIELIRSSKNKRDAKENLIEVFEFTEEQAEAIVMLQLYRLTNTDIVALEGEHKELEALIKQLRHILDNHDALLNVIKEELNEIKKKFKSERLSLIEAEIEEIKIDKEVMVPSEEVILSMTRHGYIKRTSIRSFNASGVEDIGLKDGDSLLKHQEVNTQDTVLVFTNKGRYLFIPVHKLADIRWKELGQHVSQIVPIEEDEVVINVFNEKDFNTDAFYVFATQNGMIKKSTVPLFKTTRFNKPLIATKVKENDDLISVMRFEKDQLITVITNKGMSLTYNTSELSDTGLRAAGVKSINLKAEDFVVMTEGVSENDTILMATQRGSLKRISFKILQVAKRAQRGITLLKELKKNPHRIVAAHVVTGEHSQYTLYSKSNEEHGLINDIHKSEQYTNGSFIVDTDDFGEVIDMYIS
# S. aureus DNA gyrase = S. aureus DNA gyrase (Staphylococcus aureus, UniProt P20831); assay: Inhibition of DNA gyrase, biochemical assay (Inspiralis)
# Chain of S. aureus DNA gyrase (P0A0K8 whole entry): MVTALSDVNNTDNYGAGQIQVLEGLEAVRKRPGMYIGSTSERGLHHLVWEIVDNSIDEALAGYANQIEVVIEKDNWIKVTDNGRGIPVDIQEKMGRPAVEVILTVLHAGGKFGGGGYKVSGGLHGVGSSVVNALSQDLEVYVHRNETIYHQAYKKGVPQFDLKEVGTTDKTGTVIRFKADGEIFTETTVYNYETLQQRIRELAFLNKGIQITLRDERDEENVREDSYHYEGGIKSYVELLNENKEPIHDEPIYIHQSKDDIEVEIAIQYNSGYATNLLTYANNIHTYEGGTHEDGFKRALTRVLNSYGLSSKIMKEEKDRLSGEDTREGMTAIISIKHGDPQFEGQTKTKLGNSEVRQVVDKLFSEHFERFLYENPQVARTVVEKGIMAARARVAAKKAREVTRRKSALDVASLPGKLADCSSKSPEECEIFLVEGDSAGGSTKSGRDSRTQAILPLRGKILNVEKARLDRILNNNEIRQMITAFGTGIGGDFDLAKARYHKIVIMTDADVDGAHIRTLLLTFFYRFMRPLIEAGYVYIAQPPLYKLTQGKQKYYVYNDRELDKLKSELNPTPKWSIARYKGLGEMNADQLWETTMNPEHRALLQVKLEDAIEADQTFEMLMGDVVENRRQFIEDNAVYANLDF
# Chain of S. aureus DNA gyrase (P20831 whole entry): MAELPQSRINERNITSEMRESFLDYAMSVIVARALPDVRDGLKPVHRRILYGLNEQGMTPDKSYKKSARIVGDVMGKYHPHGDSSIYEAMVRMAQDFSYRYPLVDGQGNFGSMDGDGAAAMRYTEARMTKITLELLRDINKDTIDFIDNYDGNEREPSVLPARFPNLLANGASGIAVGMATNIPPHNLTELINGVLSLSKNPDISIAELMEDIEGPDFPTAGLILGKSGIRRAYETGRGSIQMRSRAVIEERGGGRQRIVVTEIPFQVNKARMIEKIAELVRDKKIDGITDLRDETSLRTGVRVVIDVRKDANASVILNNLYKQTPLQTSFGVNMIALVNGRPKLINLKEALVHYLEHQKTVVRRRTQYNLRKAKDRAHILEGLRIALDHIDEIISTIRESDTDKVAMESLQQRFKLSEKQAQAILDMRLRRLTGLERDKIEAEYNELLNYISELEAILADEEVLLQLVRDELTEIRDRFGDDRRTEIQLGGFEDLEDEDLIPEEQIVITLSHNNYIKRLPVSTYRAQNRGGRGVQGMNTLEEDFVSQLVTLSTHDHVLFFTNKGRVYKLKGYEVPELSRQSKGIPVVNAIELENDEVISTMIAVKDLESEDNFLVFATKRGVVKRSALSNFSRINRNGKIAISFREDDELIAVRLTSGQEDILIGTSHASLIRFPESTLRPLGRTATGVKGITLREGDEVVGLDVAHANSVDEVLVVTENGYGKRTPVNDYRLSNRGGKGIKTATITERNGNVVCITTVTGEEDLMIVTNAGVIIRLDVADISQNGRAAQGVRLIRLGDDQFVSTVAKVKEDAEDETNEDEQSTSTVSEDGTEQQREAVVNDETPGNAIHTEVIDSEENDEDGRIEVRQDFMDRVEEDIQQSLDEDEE
# S. aureus ATCC 29213 [10] = format: cell-based, Staphylococcus aureus
# S. aureus ATCC 29213 [11] = assay: microbe, parasite or virus in culture; format: cell-based; details: Staphylococcus aureus, ATCC29213, read-out: S. aureus ATCC 29213 MIC (n = 2)
# Method: In order to determine the spontaneous mutation frequency of investigational agents (Table 4), the MIC was first determined using the agar dilution method as recommended by the Clinical and Laboratory Standards Institute.
# Triplicate independent inocula of S. aureus ATCC 29213 were evaluated.
# hERG = hERG (Homo sapiens, UniProt Q12809); assay: hERG IC50, IonWorks Barracuda (Charles River)
# Chain of hERG (Q12809 whole entry): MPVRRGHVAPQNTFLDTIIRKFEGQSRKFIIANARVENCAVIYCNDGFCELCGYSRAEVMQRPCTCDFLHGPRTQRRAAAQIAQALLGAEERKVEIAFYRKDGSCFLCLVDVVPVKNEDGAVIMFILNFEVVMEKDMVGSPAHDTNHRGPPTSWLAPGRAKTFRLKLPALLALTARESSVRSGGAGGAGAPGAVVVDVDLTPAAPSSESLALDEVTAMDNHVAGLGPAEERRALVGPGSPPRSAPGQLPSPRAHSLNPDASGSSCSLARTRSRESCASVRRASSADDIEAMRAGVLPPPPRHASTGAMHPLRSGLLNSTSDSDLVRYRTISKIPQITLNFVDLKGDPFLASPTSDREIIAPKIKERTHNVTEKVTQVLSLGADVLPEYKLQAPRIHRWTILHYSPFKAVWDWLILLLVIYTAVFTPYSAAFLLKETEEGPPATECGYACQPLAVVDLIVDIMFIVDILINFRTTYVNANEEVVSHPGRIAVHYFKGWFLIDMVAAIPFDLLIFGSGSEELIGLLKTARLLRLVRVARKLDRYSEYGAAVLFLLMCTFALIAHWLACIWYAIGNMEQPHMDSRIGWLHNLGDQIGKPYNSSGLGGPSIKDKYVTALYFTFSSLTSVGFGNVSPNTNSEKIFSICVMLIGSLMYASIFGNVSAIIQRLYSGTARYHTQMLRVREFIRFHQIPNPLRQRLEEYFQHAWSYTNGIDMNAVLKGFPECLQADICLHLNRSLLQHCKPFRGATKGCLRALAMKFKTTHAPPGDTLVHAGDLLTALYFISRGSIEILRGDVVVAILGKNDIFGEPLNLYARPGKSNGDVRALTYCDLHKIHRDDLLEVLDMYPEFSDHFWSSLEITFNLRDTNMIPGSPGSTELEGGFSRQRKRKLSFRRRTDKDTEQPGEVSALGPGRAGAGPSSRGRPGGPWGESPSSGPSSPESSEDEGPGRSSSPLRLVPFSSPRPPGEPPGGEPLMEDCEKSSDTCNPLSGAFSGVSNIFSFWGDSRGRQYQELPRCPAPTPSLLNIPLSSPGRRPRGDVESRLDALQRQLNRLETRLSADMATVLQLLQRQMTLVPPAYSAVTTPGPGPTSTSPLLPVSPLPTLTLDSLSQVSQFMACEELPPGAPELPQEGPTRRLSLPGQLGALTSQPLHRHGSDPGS
# Excerpt: The design of these isomannide-detived NBTIs focused on enhanced polarity and modulation of basicity through the two electronegative oxygen atoms in the linker.
# S. aureus ATCC 29213 [12] = assay: MIC, CLSI broth microdilution, S. aureus ATCC 29213; format: cell-based; details: Staphylococcus aureus
# MRSADRL-3161 = details: previously published data for 27 and ciprofloxacin; cited from earlier work
# [13] = tested on: Enterococcus faecium LSI-3340; details: vancomycin-resistant strain; previously published data for 27 and ciprofloxacin; cited from earlier work
# [14] = tested on: Streptococcus pneumoniae LSI-4234; details: penicillin-susceptible strain; previously published data for 27 and ciprofloxacin; cited from earlier work
# [15] = tested on: Enterobacter cloacae LSI-2943; details: previously published data for 27 and ciprofloxacin; cited from earlier work
# S. aureus ATCC 29213 [16] = details: previously published data for 27 and ciprofloxacin; cited from earlier work
# [17] = tested on: Mycobacterium abscessus (ATCC 19977); assay: Ex vivo efficacy against M. abscessus; format: cell-based; details: concentration for >90% inhibition
# Method: (§1) Ex vivo efficacy was determined by inhibition of Mycobacterium avium complex (ATCC 700891 MAC 101), and Mycobacterium abscessus (ATCC 19977). Cytotoxicity tests were carried out against three human cell lines, THP-1 (ATCC TIB-202), HepG2 (ATCC HB-8065), and HeLa (ATCC CCL-2). IC50 values were calculated from dose response curves to determine cytotoxicity of test compounds.
# M. tuberculosis H37Rv = assay: MIC, microbroth dilution, M. tuberculosis H37Rv; format: cell-based; details: Mycobacterium tuberculosis
# M. abscessus 19977 = assay: MIC, microbroth dilution, M. abscessus; format: cell-based, Mycobacterium abscessus; details: Mycobacteroides abscessus
# Method: (§2) MICs were determined against the NTM strains […] avium ATCC 700891 MAC101 and M. abscessus 19977 using the microbroth dilution method. MIC was determined using optical density and a calorimetric growth indicator. For optical density ([…]), the MIC is considered the first concentration to inhibit growth when compared to an untreated growth control. A calorimetric growth indicator (i.e. Alamar Blue) was also added to confirm MIC value by observing color change from […], indicating no active growth.
# [18] = tested on: M tuberculosis H37Rv in THP-1 macrophages; assay: Ex vivo efficacy against M. tuberculosis in THP-1 macrophages; format: cell-based, Mycobacterium tuberculosis
# [19] = tested on: Mycobacterium avium complex (ATCC 700891 MAC 101); assay: Ex vivo efficacy against M. avium; format: cell-based; details: concentration for >90% inhibition
# Method: as §1
# M. avium 700891 = assay: MIC, microbroth dilution, M. avium; format: cell-based; details: Mycobacterium avium
# Method: as §2
# [20] = ATCC29213, read-out: MIC ATCC 29213
# [21] = CLSI broth microdilution, ciprofloxacin-resistant MRSA
# [22] = ATCC29213, CLSI broth microdilution, triplicate, read-out: MIC ATCC 29213
# [23] = S. aureus TopoIV, read-out: TopoIV IC50
# [24] = S. aureus DNA gyrase, Inspiralis, Ltd., read-out: Gyrase IC50
smiles,measurement,setting,value
O=C(O)c1cn(C2CC2)c2cc(N3CCNCC3)c(F)cc2c1=O [ciprofloxacin],MIC Escherichia coli ATCC 25922 (n = 2),[1],≤0.06 µg/mL
same,MIC Enterococcus faecium DRL-4193,[2],0.25 µg/mL
same,MIC Pseudomonas aeruginosa LSI-2946,[3],0.5 µg/mL
same,MIC Klebsiella pneumoniae LSI-2999,[4],0.25 µg/mL
same,MIC Streptococcus pyogenes LSI-1235,[5],0.25 µg/mL
same,MIC Enterococcus faecalis ATCC 29212,[6],0.5 µg/mL
same,MIC Streptococcus pneumoniae LSI-4246,[7],0.5 µg/mL
same,MIC Acinetobacter baumannii LSI-2957,[8],0.25 µg/mL
"CN[C@H](CC(C)C)C(=O)N[C@H]1C(=O)N[C@@H](CC(N)=O)C(=O)N[C@H]2C(=O)N[C@H]3C(=O)N[C@H](C(=O)N[C@H](C(=O)O)c4cc(O)cc(O)c4-c4cc3ccc4O)[C@H](O)c3ccc(c(Cl)c3)Oc3cc2cc(c3O[C@@H]2O[C@H](CO)[C@@H](O)[C@H](O)[C@H]2O[C@H]2C[C@](C)(N)[C@H](O)[C@H](C)O2)Oc2ccc(cc2Cl)[C@H]1O [vancomycin, reference compound]",MIC,USA300 isolate of MRSA,1 to 2 µg/mL
same,MIC,[9],1 to 2 µg/mL
"COc1ccc2ncc(F)c(CC[C@@]3(O)CO[C@@H]4[C@@H](NCc5ccc6c(c5)OCCO6)CO[C@@H]43)c2n1 [Compound 24, (3R,3aS,6S, 6aR)-6-(((2,3-dihydrobenzo[b][1,4]dioxin-6-yl)methyl)amino)-3-(2-(3-fluoro-6-methoxy-1,5-naphthyridin-4-yl)ethyl)hexahydrofuro[3,2-b]furan-3-ol]",MIC,USA300 isolate of MRSA,1 µg/mL
same,pIC50,TopoIV from S. aureus,5.59
same,TopoIV/gyrase IC50 ratio,TopoIV from S. aureus,13
same,improvement of TopoIV/gyrase IC50 ratio as compared to dioxane 27,TopoIV from S. aureus,~2 fold
same,pIC50,S. aureus DNA gyrase,6.70
same,MIC,[9],1 µg/mL
same,Spontaneous mutation frequency (8X MIC),S. aureus ATCC 29213 [10],"1.35 × 10^−9 (mean, n = 2)"
same,Spontaneous mutation frequency (16X MIC),S. aureus ATCC 29213 [10],"4.49 × 10^−10 (mean, n = 2)"
same,MIC,S. aureus ATCC 29213 [11],0.5 µg/mL
same,hERG IC50 higher than 31 and 32,hERG; 24 versus cyclohexane-linked 31 and 32,> 8 fold
same,MIC,S. aureus ATCC 29213 [12]; [20],0.5 to 1 µg/mL
"COc1ccc2nccc(CC[C@@]3(O)CO[C@@H]4[C@@H](NCc5ccc6c(c5)OCCO6)CO[C@@H]43)c2c1 [Compound 21, (3R,3aS,6S, 6aR)-6-(((2,3-dihydrobenzo[b][1,4]dioxin-6-yl)methyl)amino)-3-(2-(6-methoxyquinalin-4-yl)ethyl)hexahydrofuro[3,2-b]furan-3-ol]",MIC,USA300 isolate of MRSA; [21],16 µg/mL
same,MIC,[9]; CLSI broth microdilution,16 µg/mL
same,MIC,S. aureus ATCC 29213 [12]; [22],16 to 32 µg/mL
COc1ccc2ncc(F)c(CCC3OCC(NCc4ccc5c(c4)OCCO5)CO3)c2n1 (stereo not shown) [Compound 27],MIC,USA300 isolate of MRSA; [21],0.125 to 0.25 µg/mL
same,pIC50,TopoIV from S. aureus; [23],6.00
same,TopoIV/gyrase IC50 ratio,TopoIV from S. aureus; S. aureus enzymes,33
same,pIC50,S. aureus DNA gyrase; [24],7.52
same,MIC,[9]; CLSI broth microdilution,0.25 µg/mL
same,MIC Escherichia coli ATCC 25922 (n = 2),[1],16 µg/mL
same,MIC MRSADRL-3161,MRSADRL-3161,≤0.06 µg/mL
same,MIC Enterococcus faecium LSI-3340,[13],0.12 µg/mL
same,MIC Enterococcus faecium DRL-4193,[2],0.12^f μg/mL
same,MIC Pseudomonas aeruginosa LSI-2946,[3],4 µg/mL
same,MIC Klebsiella pneumoniae LSI-2999,[4],>64 µg/mL
same,MIC Streptococcus pyogenes LSI-1235,[5],≤0.06 µg/mL
same,MIC Enterococcus faecalis ATCC 29212,[6],0.5 µg/mL
same,MIC Streptococcus pneumoniae LSI-4234,[14],0.25 µg/mL
same,MIC Streptococcus pneumoniae LSI-4246,[7],≤0.06 µg/mL
same,MIC Enterobacter cloacae LSI-2943,[15],32 µg/mL
same,pIC50,hERG,5.10
same,MIC Acinetobacter baumannii LSI-2957,[8],2 µg/mL
same,MIC S. aureus ATCC 29213 (n = 3),S. aureus ATCC 29213 [16],≤0.06^b μg/mL
same,MIC,S. aureus ATCC 29213 [12]; [22],≤ 0.25 µg/mL
"COc1ccc2ncc(F)c(CC[C@@]3(O)CO[C@@H]4[C@@H](NCc5ccc(C)cc5)CO[C@@H]43)c2n1 [Compound 25, (3R,3aS,6S,6aR)-3-(2-(3-fluora-6-methoxy-1,5-naphthyridin-4-yl)ethyl)-6-((4-methyllbenzyl)amino)hexahydrofuro[3,2-b]furan-3-ol]",Ex vivo efficacy M. abscessus (>90% inhibition),[17],>128 µg/mL
same,MIC,USA300 isolate of MRSA; [21],2 µg/mL
same,MIC,M. tuberculosis H37Rv,8 µg/mL
same,MIC,M. abscessus 19977,8 µg/mL
same,pIC50,TopoIV from S. aureus; [23],5.12
same,TopoIV/gyrase IC50 ratio,TopoIV from S. aureus; S. aureus enzymes,42
same,pIC50,S. aureus DNA gyrase; [24],6.74
same,MIC,[9]; CLSI broth microdilution,2 µg/mL
same,M. tuberculosis ex vivo efficacy (% inhibition at MIC),[18],80%
same,pIC50,"hERG; read-out: hERG IC50, IonWorks Barracuda",5.38
same,Ex vivo efficacy M. avium (>90% inhibition),[19],>128 µg/mL
same,MIC,M. avium 700891,16 µg/mL
same,MIC,S. aureus ATCC 29213 [12]; [22],1 to 2 µg/mL
"COc1ccc2nccc(CC[C@@]3(O)CO[C@@H]4[C@@H](NCc5ccccc5)CO[C@@H]43)c2c1 [Compound 22, (3R,3aS,6S,6aR)-6-(benzylamino)-3-(2-(6-methoxyquinolin-4-yl)ethyl)hexahydrofuro[3,2-b]furan-3-ol]",MIC,USA300 isolate of MRSA; [21],> 8 µg/mL
same,MIC,[9]; CLSI broth microdilution,> 8 µg/mL
same,MIC,S. aureus ATCC 29213 [12]; [22],> 8 µg/mL
"COc1ccc2ncc(F)c(CC[C@@]3(O)CO[C@@H]4[C@@H](NCc5ccc(Cl)c(Cl)c5)CO[C@@H]43)c2n1 [Compound 26, (3R,3aS,6S,6aR)-6-((3,4-dichlorobenzyl)amino)-3-(2-(3-fluoro-6-methoxy-1,5-napkthyridin-4-yl)ethyl)hexahydrofuro[3,2-b]-furan-3-ol]",Ex vivo efficacy M. abscessus (>90% inhibition),[17],32 µg/mL
same,MIC,USA300 isolate of MRSA; [21],0.5 µg/mL
same,MIC,M. tuberculosis H37Rv,2 µg/mL
same,MIC,M. abscessus 19977,8 µg/mL
same,pIC50,TopoIV from S. aureus; [23],5.54
same,pIC50,S. aureus DNA gyrase; [24],6.70
same,MIC,[9]; CLSI broth microdilution,0.5 µg/mL
same,M. tuberculosis ex vivo efficacy (% inhibition at MIC),[18],90%
same,Ex vivo efficacy M. avium (>90% inhibition),[19],>128 µg/mL
same,MIC,M. avium 700891,1 µg/mL
same,MIC,S. aureus ATCC 29213 [12]; [22],0.25 to 0.5 µg/mL
"COc1ccc2nccc(CC[C@@]3(O)CO[C@@H]4[C@@H](NCc5ccc(C)cc5)CO[C@@H]43)c2c1 [Compound 23, (3R,3aS,6S,6aR)-3-(2-(6-methoxyquinolin-4-yl)ethyl)-6-((4-methylbenzyl)amino)hexahydrofuro[3,2-h]furan-3-ol]",MIC,USA300 isolate of MRSA; [21],> 8 µg/mL
same,MIC,[9]; CLSI broth microdilution,> 8 µg/mL
same,MIC,S. aureus ATCC 29213 [12]; [22],> 8 µg/mL
"COc1ccc2ncc(F)c(CC[C@@]3(O)CO[C@@H]4[C@@H](NCc5ccc6c(n5)NC(=O)CO6)CO[C@@H]43)c2n1 [Compound 7, 6-((((3S,3aR,6R,6aS)-6-(2-(3-fluoro-6-methoxy-1,5-tnaphthyriditn-4-yl)ethyl)-6-hydroxyhexahydrofuro[3,2-b]furan-3-yl)amino)methyl)-2H-pyrido[3,2-b][1,4]oxazin-3(4H)-one]",MIC,USA300 isolate of MRSA,1 to 2 µg/mL
same,TopoIV IC50,TopoIV from S. aureus,No activity
same,pIC50,S. aureus DNA gyrase,6.27
same,MIC,[9],2 µg/mL
same,MIC,S. aureus ATCC 29213 [12]; [20],2 µg/mL
